Measurements: PMC6585621 (Clinical Pharmacology and Therapeutics, 2018)
Read-outs that look alike come from different tables or passages of the source. One block for each compound: values may come before it.

Legend:
[1] = Pharmacokinetics of clopidogrel and its metabolites with and without ritonavir; assay type: in vivo, human; conditions: for C max / AUC0‐4h / AUC0‐∞ / t ½ / t max / AUC / half-life: after clopidogrel 300 mg oral; for C max / AUC0‐4h / AUC0‐∞ / t ½ / Clopidogrel active metabolite: clopidogrel AUC0‐∞ ratio / AUC / half-life: geometric mean (geometric CV); for t max: median (range); for half-life: t ½
[2] = cited from earlier work
platelet aggregation = conditions: clopidogrel 300 mg, arithmetic mean (SD)
[3] = test system: carboxylesterase 1 (CES1); conditions: cited from earlier work
CYP3A4 = conditions: in the absence of ritonavir; cited from earlier work
[4] = cited from earlier work; remark: listed apart in the source
[5] = cited from earlier work; remark: listed apart in the source
[6] = assay type: in vivo, human; conditions: for t ½ / t max / M1:dasabuvir AUC0‐23h ratio / M1:dasabuvir AUC0‐∞ ratio: after dasabuvir 250 mg oral; for t ½ / M1:dasabuvir AUC0‐23h ratio / M1:dasabuvir AUC0‐∞ ratio: geometric mean (geometric CV); for effect of ritonavir on pharmacokinetics compared to pretreatment with placebo: ritonavir 100 mg twice daily; for t max: median (range)
[7] = Pharmacokinetics of ritonavir with and without clopidogrel; assay type: in vivo, human
[8] = in humans; cited from earlier work
[9] = clopidogrel and ritonavir phase (ritonavir 100 mg twice daily)
[10] = clopidogrel and ritonavir phase

Compound: COc1c(-c2ccc3cc(NS(C)(=O)=O)ccc3c2)cc(-n2ccc(=O)[nH]c2=O)cc1C(C)(C)C [Dasabuvir, dasabuvir, reference compound]
share of overall metabolism for which CYP3A4 is responsible (CYP3A4): about 30%
PBPK-predicted increase of AUC by clopidogrel [4]: 1.9–2.8 fold
implied reduction in clearance by clopidogrel (PBPK prediction) [4]: 47–64%
prolongation of half‐life (t ½) by concomitant gemfibrozil ([5]; humans): 18 fold
increase of AUC by concomitant gemfibrozil ([5]; humans, during ritonavir coadministration): 11 fold
fraction metabolized by CYP2C8 ([5]; in the presence of the CYP3A4 inhibitor ritonavir): > 0.9
highest individual increase in AUC0‐∞, clopidogrel phase vs placebo phase ([6]; 12 subjects): > 10 fold
range of individual increases of AUC0‐∞ by clopidogrel compared with placebo ([6]; 12 subjects, clopidogrel phase vs placebo phase): 2.0–10.1 fold
t ½ ([6]; ritonavir phase): 8.22 (25) h
AUC0‐∞ in clopidogrel phase as % of that during placebo ([6]; geometric mean): 467%
AUC0‐∞ in clopidogrel–ritonavir phase as % of that during the ritonavir phase ([6]; geometric mean): 389%
C max in clopidogrel–ritonavir phase as % of that during the ritonavir phase ([6]; geometric mean): 182%
AUC0‐23h, clopidogrel and ritonavir phase to ritonavir phase ratio ([6]; geometric mean ratio (90% CI)): 3.13 (2.17–4.52) P = 0.00002
AUC0‐∞, clopidogrel phase to placebo phase ratio ([6]; geometric mean ratio (90% CI)): 4.67 (3.23–6.74) P = 8·10^−7
C max, clopidogrel and ritonavir phase to ritonavir phase ratio ([6]; geometric mean ratio (90% CI)): 1.82 (1.27–2.61) P = 0.004
C max, clopidogrel phase to placebo phase ratio ([6]; geometric mean ratio (90% CI)): 1.63 (1.03–2.57) P = 0.07
t ½, clopidogrel and ritonavir phase to ritonavir phase ratio ([6]; geometric mean ratio (90% CI)): 1.40 (1.14–1.73) P = 0.005
t ½, clopidogrel phase to placebo phase ratio ([6]; geometric mean ratio (90% CI)): 1.84 (1.59–2.13) P = 1·10^−6
contribution of CYP2C8 to metabolism ([6]; implied from clopidogrel interaction, both with and without ritonavir): exceed 80%
effect of ritonavir on pharmacokinetics compared to pretreatment with placebo [6]: did not cause significant changes
trend of lower concentrations in the ritonavir phase than in the placebo phase ([6]; statistically insignificant): –20%

Compound: CC(C)(O)c1ccccc1CC[C@@H](SCC1(CC(=O)O)CC1)c1cccc(/C=C/c2ccc3ccc(Cl)cc3n2)c1 [montelukast]
increase of AUC of CYP2C8 substrate by gemfibrozil [5]: ~4.5 fold

Compound: CCc1ccc(CCOc2ccc(CC3SC(=O)NC3=O)cc2)nc1 (stereo not shown) [pioglitazone]
increase of AUC of CYP2C8 substrate by gemfibrozil [5]: about 3 fold

Compound: O=C(O)C[C@H](O)C[C@H](O)/C=C/c1c(C2CC2)nc2ccccc2c1-c1ccc(F)cc1 [pitavastatin]
effect of clopidogrel on pharmacokinetics [8]: not affected

Compound: CCOc1cc(CC(=O)N[C@@H](CC(C)C)c2ccccc2N2CCCCC2)ccc1C(=O)O [repaglinide]
increase of AUC of CYP2C8 substrate by gemfibrozil [5]: ~8 fold

Continued, in another order:

C max [1, 9]: 6.77 (140) ng/mL
AUC0‐4h [1, 10]: 9.16 (150) ng·h/mL
AUC0‐∞ [1, 10]: 14.9 (170) ng·h/mL
t ½ [1, 10]: 0.89 (90) h
t max [1, 10]: 0.92 (0.92–1.5) h
AUC0‐4h ([1]; clopidogrel phase): 18.7 (77) ng·h/mL
AUC0‐∞ ([1]; clopidogrel phase): 19.3 (79) ng·h/mL
C max ([1]; clopidogrel phase): 13.0 (72) ng/mL
t ½ ([1]; clopidogrel phase): 1.05 (58) h
t max ([1]; clopidogrel phase): 0.92 (0.92–1.5) h
Clopidogrel active metabolite: clopidogrel AUC0‐∞ ratio [1, 10]: 1.83 (200)
Clopidogrel active metabolite: clopidogrel AUC0‐∞ ratio ([1]; clopidogrel phase): 1.79 (110)
AUC0‐4h in clopidogrel–ritonavir phase as % of that in the clopidogrel phase ([1]; geometric mean): 49%
C max in clopidogrel–ritonavir phase as % of that in the clopidogrel phase ([1]; geometric mean): 52%
AUC0‐4h, clopidogrel and ritonavir phase to clopidogrel phase ratio ([1]; geometric mean ratio (90% CI)): 0.49 (0.39–0.61); P = 0.0001
AUC0‐∞, clopidogrel and ritonavir phase to clopidogrel phase ratio ([1]; geometric mean ratio (90% CI)): 0.77 (0.59–1.00)
C max, clopidogrel and ritonavir phase to clopidogrel phase ratio ([1]; geometric mean ratio (90% CI)): 0.52 (0.41–0.65); P = 0.0003
Clopidogrel active metabolite: clopidogrel AUC0‐∞ ratio, clopidogrel and ritonavir phase to clopidogrel phase ratio ([1]; geometric mean ratio (90% CI)): 1.03 (0.53–1.97)
t ½, clopidogrel and ritonavir phase to clopidogrel phase ratio ([1]; geometric mean ratio (90% CI)): 0.85 (0.66–1.08)
Compound: COC(=O)[C@H](c1ccccc1Cl)N1CC[C@@H](S)/C(=C\C(=O)O)C1 [Clopidogrel active metabolite]
decrease of AUC by ketoconazole [2]: 22–29%

C max [1, 9]: 1,610 (43) ng/mL
AUC0‐4h [1, 10]: 4,030 (45) ng·h/mL
AUC0‐∞ [1, 10]: 6,430 (46) ng·h/mL
t ½ [1, 10]: 2.02 (8.5) h
t max [1, 10]: 1.5 (1.5–3.0) h
AUC0‐4h ([1]; clopidogrel phase): 3,630 (56) ng·h/mL
AUC0‐∞ ([1]; clopidogrel phase): 6,840 (53) ng·h/mL
C max ([1]; clopidogrel phase): 1,420 (57) ng/mL
t ½ ([1]; clopidogrel phase): 2.83 (19) h
t max ([1]; clopidogrel phase): 1.75 (0.92–2.0) h
AUC0‐4h, clopidogrel and ritonavir phase to clopidogrel phase ratio ([1]; geometric mean ratio (90% CI)): 1.11 (0.86–1.43)
AUC0‐∞, clopidogrel and ritonavir phase to clopidogrel phase ratio ([1]; geometric mean ratio (90% CI)): 0.94 (0.71–1.23)
C max, clopidogrel and ritonavir phase to clopidogrel phase ratio ([1]; geometric mean ratio (90% CI)): 1.13 (0.86–1.47)
t ½, clopidogrel and ritonavir phase to clopidogrel phase ratio ([1]; geometric mean ratio (90% CI)): 0.71 (0.63–0.81); P = 0.0007
Compound: O=C(O)[C@H]1O[C@@H](OC(=O)[C@H](c2ccccc2Cl)N2CCc3sccc3C2)[C@H](O)[C@@H](O)[C@@H]1O [Clopidogrel acyl‐β‐D‐glucuronide, clopidogrel acyl‐β‐D‐glucuronide]

C max [1, 9]: 12,300 (34) ng/mL
AUC0‐4h [1, 10]: 27,800 (37) ng·h/mL
AUC0‐∞ [1, 10]: 41,600 (37) ng·h/mL
t ½ [1, 10]: 2.46 (12) h
t max [1, 10]: 0.92 (0.92–1.5) h
AUC0‐4h ([1]; clopidogrel phase): 26,800 (29) ng·h/mL
AUC0‐∞ ([1]; clopidogrel phase): 44,300 (26) ng·h/mL
C max ([1]; clopidogrel phase): 12,200 (22) ng/mL
t ½ ([1]; clopidogrel phase): 2.98 (21) h
t max ([1]; clopidogrel phase): 0.92 (0.92–1.5) h
AUC0‐4h, clopidogrel and ritonavir phase to clopidogrel phase ratio ([1]; geometric mean ratio (90% CI)): 1.04 (0.91–1.18)
AUC0‐∞, clopidogrel and ritonavir phase to clopidogrel phase ratio ([1]; geometric mean ratio (90% CI)): 0.94 (0.80–1.10)
C max, clopidogrel and ritonavir phase to clopidogrel phase ratio ([1]; geometric mean ratio (90% CI)): 1.01 (0.89–1.15)
t ½, clopidogrel and ritonavir phase to clopidogrel phase ratio ([1]; geometric mean ratio (90% CI)): 0.83 (0.72–0.95); P = 0.03
Compound: O=C(O)[C@H](c1ccccc1Cl)N1CCc2sccc2C1 [Clopidogrel carboxylic acid, clopidogrel carboxylic acid]

AUC0‐4h, clopidogrel and ritonavir phase to clopidogrel phase ratio ([1]; geometric mean ratio (90% CI)): 0.75 (0.40–1.44)
AUC0‐∞, clopidogrel and ritonavir phase to clopidogrel phase ratio ([1]; geometric mean ratio (90% CI)): 0.75 (0.39–1.43)
C max, clopidogrel and ritonavir phase to clopidogrel phase ratio ([1]; geometric mean ratio (90% CI)): 0.79 (0.40–1.57)
t ½, clopidogrel and ritonavir phase to clopidogrel phase ratio ([1]; geometric mean ratio (90% CI)): 0.89 (0.72–1.11)
Cmax ([1]; human, plasma, po, 300 mg): 4.49 ng/mL
AUC ([1]; human, plasma, po, 300 mg, AUC0‐4h, clopidogrel and ritonavir phase): 6.44 ng·h/mL
AUC ([1]; human, plasma, po, 300 mg, AUC0‐4h, clopidogrel phase): 8.53 ng·h/mL
AUC ([1]; human, plasma, po, 300 mg, AUC0‐∞, clopidogrel and ritonavir phase): 8.14 ng·h/mL
AUC ([1]; human, plasma, po, 300 mg, AUC0‐∞, clopidogrel phase): 10.8 ng·h/mL
half-life ([1]; human, plasma, po, 300 mg, clopidogrel and ritonavir phase): 1.77 h
half-life ([1]; human, plasma, po, 300 mg, clopidogrel phase): 1.98 h
Compound: COC(=O)[C@H](c1ccccc1Cl)N1CCc2sccc2C1 [Clopidogrel, clopidogrel, reference compound]
Inhibition of platelet aggregation, average inhibition at 0‐24 h (platelet aggregation; [10]): 31 (28) %
Inhibition of platelet aggregation, maximal inhibition (platelet aggregation; [10]): 40 (29) %
Inhibition of platelet aggregation, average inhibition at 0‐24 h (platelet aggregation; clopidogrel phase): 51 (24) %
Inhibition of platelet aggregation, maximal inhibition (platelet aggregation; clopidogrel phase): 60 (23) %
fraction hydrolyzed by CES1 to inactive carboxylic acid metabolite [3]: About 90%

t max [6, 10]: 4.0 (3.0–23) h
M1:dasabuvir AUC0‐23h ratio ([6]; clopidogrel phase): 0.0102 (42)
M1:dasabuvir AUC0‐∞ ratio ([6]; clopidogrel phase): 0.0135 (32)
t ½ ([6]; clopidogrel phase): 17.3 (23) h
t max ([6]; clopidogrel phase): 4.0 (3.0–23) h
M1:dasabuvir AUC0‐23h ratio ([6]; placebo phase): 0.0795 (28)
M1:dasabuvir AUC0‐∞ ratio ([6]; placebo phase): 0.0774 (29)
t ½ ([6]; placebo phase): 7.87 (32) h
t max ([6]; placebo phase): 4.0 (2.0–4.0) h
M1:dasabuvir AUC0‐23h ratio ([6]; ritonavir phase): 0.0888 (35)
M1:dasabuvir AUC0‐∞ ratio ([6]; ritonavir phase): 0.0786 (38)
t ½ ([6]; ritonavir phase): 7.35 (25) h
t max ([6]; ritonavir phase): 4.0 (3.0–6.0) h
AUC0‐23h in clopidogrel phase as % of that during placebo phase ([6]; geometric mean): 41%
AUC0‐23h in clopidogrel–ritonavir phase as % of that during the ritonavir phase ([6]; geometric mean): 48%
C max in clopidogrel phase as % of that in the placebo phase ([6]; geometric mean): 20%
C max in clopidogrel–ritonavir phase as % of that during the ritonavir phase ([6]; geometric mean): 22%
M1:dasabuvir AUC0‐∞ ratio in clopidogrel phase as % of that with placebo ([6]; geometric mean): 17%
AUC0‐23h, clopidogrel and ritonavir phase to ritonavir phase ratio ([6]; geometric mean ratio (90% CI)): 0.48 (0.32–0.71) P = 0.002
AUC0‐23h, clopidogrel phase to placebo phase ratio ([6]; geometric mean ratio (90% CI)): 0.41 (0.26–0.65) P = 0.001
C max, clopidogrel and ritonavir phase to ritonavir phase ratio ([6]; geometric mean ratio (90% CI)): 0.22 (0.13–0.36) P = 0.00002
C max, clopidogrel phase to placebo phase ratio ([6]; geometric mean ratio (90% CI)): 0.20 (0.11–0.36) P = 0.00006
M1:dasabuvir AUC0‐23h ratio, clopidogrel and ritonavir phase to ritonavir phase ratio ([6]; geometric mean ratio (90% CI)): 0.14 (0.12–0.17) P = 5·10^−11
M1:dasabuvir AUC0‐23h ratio, clopidogrel phase to placebo phase ratio ([6]; geometric mean ratio (90% CI)): 0.13 (0.11–0.15) P = 5·10^−12
M1:dasabuvir AUC0‐∞ ratio, clopidogrel and ritonavir phase to ritonavir phase ratio ([6]; geometric mean ratio (90% CI)): 0.20 (0.17–0.25) P = 5·10^−10
M1:dasabuvir AUC0‐∞ ratio, clopidogrel phase to placebo phase ratio ([6]; geometric mean ratio (90% CI)): 0.17 (0.16–0.19) P = 2·10^−14
t ½, clopidogrel and ritonavir phase to ritonavir phase ratio ([6]; geometric mean ratio (90% CI)): 1.92 (1.57–2.34) P = 0.00001
t ½, clopidogrel phase to placebo phase ratio ([6]; geometric mean ratio (90% CI)): 2.20 (1.72–2.81) P = 0.00001
effect of ritonavir on pharmacokinetics compared to pretreatment with placebo [6]: did not cause significant changes
Compound: COc1c(-c2ccc3cc(NS(C)(=O)=O)ccc3c2)cc(-n2ccc(=O)[nH]c2=O)cc1C(C)(C)CO [M1]

t max ([7]; clopidogrel and ritonavir phase, median (range)): 3.0 h
t ½ during coadministration of clopidogrel as % of that in the ritonavir phase ([7]; geometric mean): 112%
t max ([7]; human, plasma, oral): 1.75 h
Compound: CC(C)c1nc(CN(C)C(=O)N[C@H](C(=O)N[C@@H](Cc2ccccc2)C[C@H](O)[C@H](Cc2ccccc2)NC(=O)OCc2cncs2)C(C)C)cs1 [Ritonavir, ritonavir]
